We go through 8 molecules from patent US8889878B2, “Haloalky-substituted amides as insecticides and acaricides” (Bayer CropScience AG, priority 2009, dated 2014).

The test system of one data set is Lucilia cuprina larvae. Description: Lucilia cuprina test (LUCICU), Example 3. The format is in vivo. As to conditions: application rate 20 ppm, treated horsemeat, after 2 days. The protocol:
Lucilia cuprina Test (LUCICU) • Solvent: dimethyl sulphoxide To prepare an active ingredient formulation, 10 mg of active ingredient are mixed with 0.5 ml of dimethyl sulphoxide, and the concentrate is diluted with water to the desired concentration. Vessels containing horsemeat which has been treated with the active ingredient formulation of the desired concentration are populated with Lucilia cuprina larvae. After 2 days, the kill rate in % is determined. 100% means that all larvae were killed; 0% means that no larvae were killed.

In data set [1] the test system is Boophilus microplus. The experiment in a line: Boophilus microplus test (BOOPMI injection), Example 1. As to conditions: application rate 20 μg/animal, injected into abdomen, after 7 days. The format is in vivo. The protocol:
Boophilus microplus Test (BOOPMI Injection) • Solvent: dimethyl sulphoxide To prepare an active ingredient formulation, 10 mg of active ingredient are mixed with 0.5 ml of solvent and the concentrate is diluted with water to the desired concentration. The active ingredient solution was injected into the abdomen (Boophilus microplus), and the animals were transferred to dishes and stored in a climate-controlled room. The efficacy was assessed by the number of fertile eggs laid. After 7 days, the efficacy in % is determined. 100% means that no tick laid fertile eggs.

In the next data set the test system is Ctenocephalides felis. The experiment in a line: Ctenocephalides felis oral (CTECFE), Example 2. The format is in vivo. As to conditions: application rate 20 ppm in citrated cow's blood, after 2 days. The protocol:
Ctenocephalides felis Oral ([…]) • Solvent: 1 part by weight of dimethyl sulphoxide For the purpose of preparing an active ingredient formulation, 10 mg of active ingredient are mixed with 0.5 ml of dimethyl sulphoxide. A portion of the concentrate was diluted with citrated cow's blood and the desired concentration was prepared. 20 unfed adult fleas (Ctenocephalides felis) are placed into a chamber sealed at the top and bottom with gauze. A metal cylinder with its lower end sealed with Parafilm is placed onto the chamber. The cylinder contains the blood-active ingredient preparation, which can be consumed by the fleas through the Parafilm membrane. After 2 days, the kill rate in % is determined. 100% means that all fleas were killed; 0% means that no fleas were killed.

Data set [2] can be described thus: logP by HPLC on reverse-phase column (EEC Directive 79/831 Annex V.A8). The format is physicochemical. As to conditions: for logP: HPLC-MS; for chromatographic logP: reverse-phase C18 HPLC column, pH 2.7, HPLC, C18 reverse phase, 43° C., acidic range pH 2.7, calibration with alkan-2-ones. The protocol:
The logP values reported in the above Tables and Preparation Examples were determined according to EEC Directive 79/831 Annex V.A8 by HPLC (High Performance Liquid Chromatography) on a reverse-phase column (C18). Temperature 43° C.

The next data set has as its system Musca domestica adults. The experiment in a line: Musca domestica test (MUSCDO), Example 14. Conditions: application rate 100 ppm, treated sponge, after 2 days. The format is in vivo. As to the method: Musca domestica Test (MUSCDO) • Solvent: dimethyl sulphoxide To prepare an appropriate active ingredient formulation, 10 mg of active ingredient are mixed with 0.5 ml of dimethyl sulphoxide, and the concentrate is diluted with water to the desired concentration. Vessels containing a sponge which has been treated with the active ingredient formulation of the desired concentration are populated with Musca domestica adults. After 2 days, the kill rate in % is determined. 100% means that all flies were killed; 0% means that no flies were killed.

For data set [3], the system named is Boophilus microplus. The experiment in a line: Boophilus microplus test (BOOPMI injection), Example 11. It is filed as in vivo. As to conditions: application rate 20 μg/animal, injected into abdomen, after 7 days. The method, boiled down:
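Adult ticks injected in the abdomen with compound diluted in DMSO, then held in a climate-controlled room. Efficacy in % determined after 7 days from fertile eggs laid; 100% means no tick laid fertile eggs.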

The test system of data set [4] is mustard beetle (Phaedon cochleariae). The experiment in a line: Phaedon test (PHAECO spray treatment), Example 7. It is filed as in vivo. As to conditions: application rate 20 g/ha, china cabbage leaf discs sprayed, after 7 days. The method, boiled down:
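Spray formulation (acetone/DMF with alkylaryl polyglycol ether, diluted in emulsifier-containing water) applied to Chinese cabbage leaf discs, which were dried and then stocked with mustard beetle larvae. Efficacy scored at 7 days as % larvae killed (100% all, 0% none).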

Data set [5] relates to red spider mite (Tetranychus urticae). Description: Tetranychus test, OP-resistant (TETRUR spray treatment), Example 8. It is filed as in vivo. Conditions: application rate 20 g/ha, common bean leaf discs sprayed, after 6 days. The method, boiled down: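 Bean (Phaseolus vulgaris) leaf discs carrying all stages of OP-resistant Tetranychus urticae sprayed with compound in acetone/DMF with emulsifier, diluted in water to the test concentration. Mortality scored after 6 days as % efficacy (100% = all mites killed).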

Data set [6] concerns armyworm (Spodoptera frugiperda). The experiment in a line: Spodoptera frugiperda test (SPODFR spray treatment), Example 15. It is filed as in vivo. As to conditions: Spodoptera frugiperda, foliar, 168 h, maize leaf discs sprayed, after 7 days, read-out: efficacy in %; for pest or weed control at 500 g/ha: application rate 500 g/ha; for pest or weed control at 100 g/ha: application rate 100 g/ha. In a few lines:
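Maize leaf discs sprayed with active ingredient in acetone/DMF with alkylaryl polyglycol ether emulsifier, diluted in water, then populated with caterpillars after drying. Efficacy in % after 7 days: 100% all caterpillars killed, 0% none.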

For data set [7], the system named is mustard beetle (Phaedon cochleariae). The experiment in a line: Phaedon test (PHAECO spray treatment), Example 16. The format is in vivo. Conditions: Phaedon cochleariae, foliar, china cabbage leaf discs sprayed, after the desired time, read-out: efficacy in %; for pest or weed control at 500 g/ha: application rate 500 g/ha; for pest or weed control at 100 g/ha: application rate 100 g/ha. As to the method: Phaedon Test (PHAECO Spray Treatment)
(§1) • Solvent: 78.0 parts by weight of acetone • 1.5 parts by weight of dimethylformamide • Emulsifier: 0.5 part by weight of alkylaryl polyglycol ether
To prepare an appropriate active ingredient formulation, 1 part by weight of active ingredient is mixed with the stated amounts of solvent and emulsifier, and the concentrate is diluted with emulsifier-containing water to the desired concentration. […]
After the desired time, the efficacy in % is determined. 100% means that all beetle larvae were killed; 0% means that no beetle larvae were killed.

Data set [8] concerns red spider mite (Tetranychus urticae). The experiment in a line: Tetranychus test; OP-resistant (TETRUR spray treatment), Example 18. The format is in vivo. Conditions: Tetranychus urticae, foliar, 144 h, common bean leaf discs sprayed, after 6 days, read-out: efficacy in %; for pest or weed control at 500 g/ha: application rate 500 g/ha; for pest or weed control at 100 g/ha: application rate 100 g/ha. The protocol:
Tetranychus Test; OP-Resistant (TETRUR Spray Treatment)
as §1
To prepare an appropriate active ingredient formulation, 1 part by weight of active ingredient is mixed with the stated amounts of solvent and emulsifier, and the concentrate is diluted with emulsifier-containing water to the desired concentration. Leaf discs from the common bean (Phaseolus vulgaris) infested by all stages of the red spider mite (Tetranychus urticae) are sprayed with an active ingredient formulation of the desired concentration.
After 6 days, the efficacy in % is determined. 100% means that all spider mites were killed; 0% means that no spider mites were killed.

With `O=C(/C=C/c1ccc(C(=O)NCC(F)(F)F)c(Br)c1)NC(c1cccc(C(F)(F)F)c1)C(F)(F)F` (stereo not drawn) [Ia-45], the “kill rate in % (efficacy)” value worked out at 100% in the data set with Lucilia cuprina larvae, 98% with Ctenocephalides felis and 100% in the data set with Musca domestica adults. The “efficacy in % (fertile eggs laid)” value with Boophilus microplus [1] and with Boophilus microplus [3] was 100% in each case. Besides, the logP result in data set [2] is reported as “HPLC-MS: logP = 3.60; mass”.
As to `O=C(/C=C/c1ccc(C(=O)NC2CC2)c(C(F)(F)F)c1)NC(c1cc(Cl)cc(C(F)(F)F)c1)C(F)(F)F` (stereo not drawn) [Ia-40, 4-[(1E,Z)-3-({1-[3-Chloro-5-(trifluoromethyl)phenyl]-2,2,2-trifluoroethyl}amino)-3-oxoprop-1-en-1-yl]-N-cyclopropyl-2-(trifluoromethyl)benzamide], the “kill rate in % (efficacy)” value with Lucilia cuprina larvae is listed as 90%; with Ctenocephalides felis, 100%; in the data set on Musca domestica adults, 85%. In the data set with Boophilus microplus [1], the “efficacy in % (fertile eggs laid)” value is 100%. Besides, the chromatographic logP in [2] came out at 3.68. Besides, the pest or weed control at 0.02 mg in the data set with Boophilus microplus [3] (Rhipicephalus microplus, 168 h, read-out: efficacy in % (fertile eggs laid)) was 100%.
As to `CN(C(=O)c1ccc(/C=C/C(=O)NC(c2cccc(C(F)(F)F)c2)C(F)(F)F)cc1C(F)(F)F)C1CC1` (stereo not drawn) [Ia-60], the “kill rate in % (efficacy)” value with Lucilia cuprina larvae stood at 90%; in the data set on Ctenocephalides felis, 100%; in the data set with Musca domestica adults it was 95%. The “efficacy in % (fertile eggs laid)” value with Boophilus microplus [1] and in the data set with Boophilus microplus [3] was 100% each time. Moreover, the efficacy in % in data set [4] is listed as 100%; in data set [5] it was 90%. Besides, the logP entry in data set [2] is reported as “HPLC-MS: logP = 3.62; mass”.
As to `C=CCNC(=O)c1cc2cc(C(=O)NC(c3cccc(C(F)(F)F)c3)C(F)(F)F)n(C)c2cc1Cl` (stereo not drawn) [Ic-32, N^5-Allyl-6-chloro-1-methyl-N^2-{2,2,2-trifluoro-1-[3-(trifluoromethyl)phenyl]ethyl}-1H-indole-2,5-dicarboxamide], the pest or weed control at 500 g/ha in data set [6], in data set [7] and in data set [8] was 100% each time. This molecule came in with a chromatographic logP in data set [2] of 3.68.
As for `CC(=O)NC1CCc2cc(/C=C/C(=O)NC(c3cccc(C(F)(F)F)c3)C(F)(F)F)ccc21` (stereo not drawn) [Ie-1, (2E)-3-(1-Acetamido-2,3-dihydro-1H-inden-5-yl)-N-{2,2,2-trifluoro-1-[3-(trifluoromethyl)-phenyl]ethyl}acrylamide], the figures for the pest or weed control at 100 g/ha in [6], in [7] and in [8] were 100%, 100% and 90%, respectively. For the same molecule, the chromatographic logP in data set [2] stood at 3.
Turning to `CC(C)C(=O)NCc1ccc(/C=C/C(=O)NC(c2cccc(C(F)(F)F)c2)C(F)(F)F)cc1C(F)(F)F` (stereo not drawn) [Ia-266, (2E)-3-{4-[(Isobutyrylamino)methyl]-3-(trifluoromethyl)phenyl}-N-{2,2,2-trifluoro-1-[3-(trifluoromethyl)phenyl]ethyl}acrylamide], the results for the pest or weed control at 100 g/ha in data set [6], in data set [7] and in data set [8] were 100%, 100% and 90%, respectively. In addition, in data set [2], the chromatographic logP is 3.78.
Consider `O=C(/C=C\c1ccc(C(=O)NC2CC2)c(Cl)c1)NC(c1cccc(C(F)(F)F)c1)C(F)(F)F` (stereo not drawn) [Ig-1, 2-Chloro-N-cyclopropyl-4-[(1Z)-3-oxo-3-({2,2,2-trifluoro-1-[3-(trifluoromethyl)phenyl]ethyl}-amino)prop-1-en-1-yl]benzamide], for which the pest or weed control at 100 g/ha in data set [7] turned out to be 100%; in data set [8], 80%. Besides, the chromatographic logP in [2] turned out to be 3.06.
Take `O=C(/C=C/c1ccc(C(=O)NC2CC2)c(C(F)(F)F)c1)NC(c1cc(F)cc(C(F)(F)F)c1)C(F)(F)F` (stereo not drawn) [Ia-229, N-[α,3-Bis(trifluoromethyl)-5-fluorobenzenemethane]-3-trifluoromethyl-4-(N-cyclopropylcarbamoyl)cinnamide]: the pest or weed control at 500 g/ha in [6], in data set [7] and in [8] was 100% throughout. This molecule came in with a chromatographic logP in [2] of 3.59.
